Assay results published in publication PMC4429288 (The Journal of antibiotics, 2014).
Structures can show the parent of a compound that is named as a salt.

What was measured:
[1] = tested on: S. aureus (MRSA, VISA and VRSA strains); experiment: MBC, plating from MIC wells; type: cell-based, Staphylococcus aureus
[2] = tested on: MRSA NRS123 (USA400); experiment: Time-kill analysis
[3] = tested on: S. aureus (MRSA, VISA and VRSA strains); experiment: MIC, broth microdilution; type: cell-based, Staphylococcus aureus
[4] = tested on: methicillin-resistant Staphylococcus aureus (MRSA); experiment: Single-step resistance selection; type: cell-based; settings: 4 × MIC; for Single-step frequency of resistance: resistant colonies per inoculum
[5] = tested on: S. epidermidis ATCC 35984; experiment: MIC, broth microdilution; type: cell-based; settings: Staphylococcus epidermidis, ATCC35984
[6] = Staphylococcus aureus, ATCC43300|MRSA|VISA|VRSA
[7] = Staphylococcus aureus, MRSA|NRS107|VISA|VRSA
[8] = Staphylococcus aureus, MRSA|NRS119|VISA|VRSA
[9] = Staphylococcus aureus, MRSA|NRS123|USA400|VISA|VRSA
[10] = Staphylococcus aureus, MRSA|NRS194|VISA|VRSA
[11] = Staphylococcus aureus, MRSA|NRS384|USA300|VISA|VRSA
[12] = Staphylococcus aureus, MRSA|NRS385|USA500|VISA|VRSA

teicoplanin
MBC ([1]; MRSA ATCC 43300): 3.76 µg/mL
MBC ([1]; MRSA NRS107): 0.94 µg/mL
MBC ([1]; MRSA NRS119): 0.94 µg/mL
MBC ([1]; MRSA NRS123 (USA400)): 15.04 µg/mL
MBC ([1]; MRSA NRS194): 15.04 µg/mL
MBC ([1]; MRSA NRS384 (USA300)): 15.04 µg/mL
MBC ([1]; MRSA NRS385 (USA500)): 3.76 µg/mL
MBC ([1]; VISA NRS1): 7.52 µg/mL
MBC ([1]; VISA NRS19): 0.94 µg/mL
MBC ([1]; VISA NRS37): 7.52 µg/mL
MBC ([1]; VRSA VRS1): 240.60 µg/mL
MBC ([1]; VRSA VRS4): 60.15 µg/mL
MBC ([1]; VRSA VRS5): 60.15 µg/mL
MBC relative to MIC ([1]; three strains of MRSA (NRS194, USA300, and USA400)): 16 fold
MBC relative to MIC ([1]; two additional MRSA strains): four
Time to complete elimination of MRSA ([2]; 2 × MIC): 24 h
Time to complete elimination of MRSA ([2]; 4 × MIC): 24 h
Time to complete elimination of MRSA ([2]; 8 × MIC): 24 h
MIC ([3]; MRSA ATCC 43300): 0.94 µg/mL
MIC ([3]; MRSA NRS107): 0.94 µg/mL
MIC ([3]; MRSA NRS119): 0.94 µg/mL
MIC ([3]; MRSA NRS123 (USA400)): 0.94 µg/mL
MIC ([3]; MRSA NRS194): 0.94 µg/mL
MIC ([3]; MRSA NRS384 (USA300)): 0.94 µg/mL
MIC ([3]; MRSA NRS385 (USA500)): 0.94 µg/mL
MIC ([3]; VISA NRS1): 3.76 µg/mL
MIC ([3]; VISA NRS19): 0.94 µg/mL
MIC ([3]; VISA NRS37): 7.52 µg/mL
MIC range ([3]; VISA strains): 0.94 to 7.52 µg/mL
MIC ([3]; VRSA VRS1): 120.30 µg/mL
MIC ([3]; VRSA VRS4): 60.15 µg/mL
MIC ([3]; VRSA VRS5): 60.15 µg/mL
MIC range ([3]; all three VRSA strains): 60.51 to 120.30 µg/mL
Single-step frequency of resistance ([4]; MRSA NRS107): 1.91×10^−8
Single-step frequency of resistance ([4]; MRSA NRS119): 2.73×10^−7
Single-step frequency of resistance ([4]; MRSA NRS123 (USA400)): 2.21×10^−9
Single-step frequency of resistance ([4]; MRSA NRS384 (USA300)): 3.03×10^−9
Single-step frequency of resistance ([4]; MRSA NRS385 (USA500)): 1.79×10^−8
Mutation frequency range ([4]; five MRSA strains): 2.73×10^−7 to 3.03×10^−9

CN[C@H](CC(C)C)C(=O)N[C@H]1C(=O)N[C@@H](CC(N)=O)C(=O)N[C@H]2C(=O)N[C@H]3C(=O)N[C@H](C(=O)N[C@H](C(=O)O)c4cc(O)cc(O)c4-c4cc3ccc4O)[C@H](O)c3ccc(c(Cl)c3)Oc3cc2cc(c3O[C@@H]2O[C@H](CO)[C@@H](O)[C@H](O)[C@H]2O[C@H]2C[C@](C)(N)[C@H](O)[C@H](C)O2)Oc2ccc(cc2Cl)[C@H]1O [Vancomycin, vancomycin hydrochloride]
MBC [1, 6]: 0.74 µg/mL
MBC ([1]; Staphylococcus aureus, MRSA|NRS1|VISA|VRSA): 2.97 µg/mL
MBC ([1]; Staphylococcus aureus, MRSA|NRS19|VISA|VRSA): 2.97 µg/mL
MBC ([1]; Staphylococcus aureus, MRSA|NRS37|VISA|VRSA): 2.97 µg/mL
MBC [1, 7]: 1.49 µg/mL
MBC [1, 8]: 1.49 µg/mL
MBC [1, 9]: 0.37 µg/mL
MBC [1, 10]: 0.74 µg/mL
MBC [1, 11]: 0.74 µg/mL
MBC [1, 12]: 0.74 µg/mL
Time to 3-log10 reduction in CFUml^−1 ([2]; 2 × MIC): ≤ 24 h
Time to complete elimination of MRSA ([2]; 2 × MIC): not able to eliminate all bacteria completely
Time to complete elimination of MRSA ([2]; 4 × MIC): 24 h
Time to complete elimination of MRSA ([2]; 8 × MIC): 24 h
MIC [3, 6]: 0.74 µg/mL
MIC [3, 7]: 0.74 µg/mL
MIC [3, 8]: 0.74 µg/mL
MIC [3, 9]: 0.37 µg/mL
MIC [3, 10]: 0.74 µg/mL
MIC [3, 11]: 0.74 µg/mL
MIC [3, 12]: 0.74 µg/mL
Single-step frequency of resistance ([4]; MRSA NRS119): >8.47×10^−10
Single-step frequency of resistance ([4]; MRSA NRS123 (USA400)): >2.33×10^−10
Single-step frequency of resistance ([4]; MRSA NRS384 (USA300)): 3.03×10^−10
Single-step frequency of resistance ([4]; MRSA NRS385 (USA500)): >3.31×10^−10
MIC [5]: 0.74 µg/mL
